Test results reported in patent US11679082B2, “Therapeutic constructs for co-delivery of mitotic kinase inhibitor and immune checkpoint inhibitor” (Oregon Health & Science University, priority 2019, dated 2023).

Legend:
PD-L1 = PD-L1 surface expression of LLC-JSP cells by flow cytometry; type: cell-based, mouse; details: 500 ng/ml inhibitor
Excerpt: FIGS. 3A-3C. […] (FIG. 3A) PLK1 and PD-L1 mRNA expression in A549 (human NSCLC) at 48 hr post treatment with PLK1 siRNA (siPLK1) or scrambled siRNA (siSCR) normalized to HPRT housekeeping gene. Data presented as mean±SD from triplicates; ****P<0.0001. (FIG. 3B) PD-L1 surface expression of A549 ([…]) and LLC-JSP (a mouse NSCLC, FIG. 3C) at 72 hr post treatments assessed by flow cytometry (10,000 events per sample). Mouse siPLK1 seq. […] (SEQ ID NO: 1); Human siPLK1 seq. […] (SEQ ID NO: 2).
FIGS. 4A-4C Treatment effects of mitotic kinase inhibitors on (A) 3-day viability of LLC-JSP cells, (B) PD-L1 expression levels of surviving cells post treatment with 500 ng/ml of volasertib, alisertib, or AZD7762 as determined by flow cytometry and (C) their quantification.
FIGS. 6A-6D Nanoparticle delivery of PLK1 inhibitor volasertib (iPLK1-NP) to mouse NSCLC cells. (FIG. 6A) Schematic of synthesis of iPLK1-NP. (FIG. 6B) Hydrodynamic size of NP (with no inhibitor) and iPLK1-NP measured with Zetasizer. (FIG. 6C) Viability of LLC-JSP cells treated with volasertib (in 1% DMSO/PBS), iPLK1-NP (in PBS), or 1% DMSO/PBS for 4 days. Data presented as mean±SD from 4 independent samples; ****P<0.0001. (FIG. 6D) PD-L1 surface expression of LLC-JSP cells treated with PBS or iPLK1-NP (42 μg/ml NP, 210 ng/ml volasertib) for 3 days.
FIGS. 7A-7E. Nanoparticle for co-delivery of PLK1 inhibitor (iPLK1) and PD-L1 antibody (p-iPLK1-NP). (FIG. 7A) Schematic and (FIG. 7B) hydrodynamic size of p-iPLK1-NP containing 4 wt. % of PD-L1 antibody and 0.5 wt. % of PLK1 inhibitor. (FIG. 7C) 5-day cell viability of LLC-JSP cells treated with iPLK1-NP or p-iPLK1-NP. Data presented as mean±SD from 4 independent samples; ns—not significant. PD-L1 surface expression assessed by flow cytometry after LLC-JSP cells were incubated with various treatments as specified for (FIG. 7D) 2 hrs and (FIG. 7E) 2 days. […]
Flow cytometry: Cells (100K cells/well) were plated in 6 well plates overnight and treated with indicated treatments the next day. […] Cells were then washed with FACs buffer and analyzed with Guava (50,000 events per sample).

A549 = assay: Cell cycle arrest in G2/M phase in A549; type: cell-based, human; details: A549, 72 hr post treatment; siRNA 50 nM, BI 2536 10 nM
Procedure: FIGS. 2A-2D. Effects of siRNA against mitotic regulator PLK1 (siPLK1) on non-small-cell lung carcinoma (NSCLC) cell lines (A549 and H460). (FIG. 2A) 48-hr PLK1 mRNA knockdown (HPRT used as house-keeping gene) and (FIG. 2B) 72-hr PLK1 protein reduction at 50 nM siRNA dose. (FIG. 2C) 4-day cell viability at 30 nM siRNA dose. (FIG. 2D) Cell cycle arrest increase in G2/M phase in A549 72 hr post treatment. Antibody (cetuximab) conjugated NP was used to deliver the siPLK1 (C-siPLK1-NP) or scrambled siRNA control (C-siSCR-NP) at 50 nM siRNA BI 2536 (a PLK1 inhibitor) was used as a drug benchmark at 10 nM. Data presented as mean±SD from independent duplicates (10,000 events per sample); ****P<0.0001 vs. untreat control. Unless specified otherwise, “NP” denotes mesoporous silica nanoparticles coated with cross-linked PEI and PEG, as described in Ngamcherdtrakul et al., Advanced Functional Materials, 25(18):2646-2659, 2015 and U.S. Patent Application Publication No. 2017/0173169.

acute myeloid leukemia = details: phase III; cited from earlier work
LLC-JSP cells = assay: Cell viability of LLC-JSP cells (Cell Titer Glo); type: cell-based, mouse; details: 4 days, dose-dependent
Procedure: (FIG. 14B) Treatment effect of ADC versus free alisertib of equivalent dose on viability of LLC-JSP cells (2-days). […] (FIG. 14C) Effect of PD-L1 on the viability of LLC-JSP cells.
Cell viability after treatments: Cells (1500/well) were plated in white flat bottom 96 well plate overnight. The following day, cells were treated with indicated treatments and media was changed 24 hr post treatment. 3-5 day post treatment, cell viability was assessed using Cell Titer Glo assay (Promega) following manufacturer's instructions. Luminescence was read with Tecan plate reader.

lung cancer = details: phase II, 300 mg once every 3 weeks; cited from earlier work

Row | SMILES | surface PD-L1 level of surviving cells (PD-L1) | cell cycle arrest in G2/M (A549) | primary endpoint of objective response (acute myeloid leukemia) | viability of LLC-JSP cells vs vehicle (LLC-JSP cells) | response as monotherapy (lung cancer)
1 | NC(=O)Nc1cc(-c2cccc(F)c2)sc1C(=O)N[C@H]1CCCNC1 [AZD7762] | upregulated surface PD-L1 level | – | – | – | –
2 | COc1cc(Nc2ncc3c(n2)-c2ccc(Cl)cc2C(c2c(F)cccc2OC)=NC3)ccc1C(=O)O [alisertib] | upregulated surface PD-L1 level | – | – | – | –
3 | CC[C@@H]1C(=O)N(C)c2cnc(Nc3ccc(C(=O)NC4CCN(C)CC4)cc3OC)nc2N1C1CCCC1 [B12536] | – | G2/M growth arrest | – | – | –
4 | CC[C@@H]1C(=O)N(C)c2cnc(Nc3ccc(C(=O)N[C@H]4CC[C@H](N5CCN(CC6CC6)CC5)CC4)cc3OC)nc2N1C(C)C [volasertib] | upregulated surface PD-L1 level | – | failed to meet primary endpoint of objective response | significantly reduced cell viability | lack of response
